Experimental data published in publication PMC9145706 (Molecules, 2022).
Read-outs that look alike come from different tables or passages of the source.

Molecular target: T1, AChE enzyme from electric eel (EeAChE) (type VI) (Electrophorus electricus, UniProt O42275)
T1 construct: purchased Sigma-Aldrich, Steinheim, Germany type VI (catalogue number not given)
Assay: In vitro AChE inhibition assay (modified Ellman method)
Assay type: biochemical
Protocol: AChE enzyme from electric eel (EeAChE) (type VI), acetylthiocholine iodide, Ellman reagent, 5,5-dithiobis-2-nitro benzoic acid (DTNB), and Eserine (standard inhibitor) were purchased from Sigma-Aldrich, Steinheim, Germany. AChE inhibitory activity was performed in vitro using a modified spectrophotometric method developed by Ellman et al.. Experiments were carried out in a 96-well microtiter plate using a Multiskan spectrum spectrophotometer. The test compounds were prepared immediately before the experiment as fresh samples. Each compound was dissolved in 200 μL methanol, 150 μL […] phosphate buffer (pH 8.0), and 20 μL AChE enzyme. An aliquot of 10 μL of resulting test solutions was mixed and incubated at 25 °C for 10 min. The sample with 10 μL of solvent (methanol) rather than the test compound served as a negative control. After 10 min, 10 μL DTNB was added to the wells and the reaction was initiated with the addition of 10 μL acetylthiocholine (ATCh). All of the samples were prepared and analyzed in triplicate. The hydrolysis of ATCh was monitored at wavelength 412 nm by measuring the formation of a yellow anion of 5-thio-2-nitrobenzoate due to the reaction of DTNB with thiocholine. The initial rate was measured as the change in optical density/min (OD/min). As the extinct coefficient of the yellow anion is known, the following equation was used to calculate the rate of the enzymatic reaction: (1) Rate (moles/L/min) = change in absorbance/εTNB where εTNB is the molar extinction coefficient value of 5-thio-2-nitrobenzoate = 13.6 × 10^3 at 412 nm.
The following formula was used to calculate the % enzyme inhibition by test compounds:(2) % inhibition = 1−Rate of change in the absorbance of test/Rate of change in the absorbance of cotrol × 100
Chalcone solutions were serially diluted to different concentrations (0.0977–50 µM) and were analyzed in triplicate using the above-described modified Ellman’s method. Finally, IC50 values were determined and statistically analyzed using EZ-Fit Enzyme Kinetic Program (Perrella Scientific Inc., Amherst, MA, USA).

[1] = EeAChE, Ellman method, triplicate, 25 °C, pH 8.0, read-out: IC50 (AChE inhibitory activity)

T1 sequence (O42275 24-633): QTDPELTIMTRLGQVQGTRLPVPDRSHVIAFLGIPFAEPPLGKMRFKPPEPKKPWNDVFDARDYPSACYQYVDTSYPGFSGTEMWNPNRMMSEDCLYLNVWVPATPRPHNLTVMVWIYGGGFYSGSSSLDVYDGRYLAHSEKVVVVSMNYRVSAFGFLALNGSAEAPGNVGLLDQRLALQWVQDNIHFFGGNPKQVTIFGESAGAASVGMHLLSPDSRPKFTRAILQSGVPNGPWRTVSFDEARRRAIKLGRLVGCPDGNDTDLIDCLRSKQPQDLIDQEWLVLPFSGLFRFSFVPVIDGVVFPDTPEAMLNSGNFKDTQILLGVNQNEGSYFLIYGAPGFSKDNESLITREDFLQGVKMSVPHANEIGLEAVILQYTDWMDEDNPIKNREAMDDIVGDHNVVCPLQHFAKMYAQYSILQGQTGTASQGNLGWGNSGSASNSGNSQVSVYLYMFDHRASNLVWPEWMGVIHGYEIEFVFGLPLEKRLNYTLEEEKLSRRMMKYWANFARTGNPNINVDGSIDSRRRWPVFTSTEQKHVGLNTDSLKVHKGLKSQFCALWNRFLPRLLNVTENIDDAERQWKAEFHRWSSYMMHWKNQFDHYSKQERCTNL

| SMILES | IC50 | IC50 [1] |
| --- | --- | --- |
| COc1ccc(/C=C/C(=O)c2ccc(Cl)cc2)cc1 [Compound C3, (E)-1-(4-chlorophenyl)-3-(4-methoxyphenyl)prop-2-en-1-one] | 32 ± 2.4 µM | – |
| O=C(/C=C/c1ccccc1)c1ccc(Cl)cc1 [Compound C1, (E)-1-(4-chlorophenyl)-3-phenylprop-2-en-1-one] | – | 22 ± 2.8 µM |
| O=C(/C=C/c1ccc([N+](=O)[O-])cc1)c1ccc(Br)cc1 [Compound C5, (E)-1-(4-bromophenyl)-3-(4-nitrophenyl)prop-2-en-1-one] | – | 37.6 ± 0.75 µM |
| CCc1ccc(C(=O)/C=C/c2ccc([N+](=O)[O-])cc2)cc1 [Compound C2, (E)-1-(4-ethylphenyl)-3-(4-nitrophenyl)prop-2-en-1-one] | – | 31.2 ± 1.8 µM |
